Measured values taken from ChEMBL document CHEMBL5465560, “Selectivity Literature for EUbOPEN Chemogenomic Library” (2024).
One block for each molecule: values may come before it.

Key:
[1] = molecular target: Histone-lysine N-methyltransferase KMT5C (Homo sapiens) (UniProt Q86Y97); assay: Selectivity interaction (Methyltransferase screen (radiometric assays, panel of 8 PRMTs, 21 protein lysine methyltransferases, 3 DNA methyltransferases, and one RNA methyltransferase)) EUB0000271b SUV420H2
[2] = molecular target: Epithelial discoidin domain-containing receptor 1 (Homo sapiens) (UniProt Q08345); assay: Selectivity interaction (KinomeScan (DiscoverX)) EUB0001079a DDR1; details: at 1 µM
[3] = molecular target: Phosphatidylinositol 4,5-bisphosphate 3-kinase catalytic subunit beta isoform (Homo sapiens) (UniProt P42338); assay: Selectivity interaction (KinomeScan (DiscoverX)) EUB0000618a PIK3CB; details: at 10 µM
[4] = molecular target: Mitogen-activated protein kinase 14 (Homo sapiens, UniProt Q16539); details: at 10 µM
[5] = molecular target: Serine/threonine-protein kinase 38-like (Homo sapiens) (UniProt Q9Y2H1); assay: Selectivity interaction (KinomeScan (DiscoverX)) EUB0000045b STK38L
[6] = molecular target: RAC-alpha serine/threonine-protein kinase (Homo sapiens, UniProt P31749); assay: Selectivity interaction (KinomeScan (DiscoverX)) EUB0000595a AKT1; details: at 10 µM
[7] = molecular target: T1, Serine/threonine-protein kinase BRSK2 (Homo sapiens) (UniProt Q8IWQ3); details: at 10 µM
T1 sequence (whole entry): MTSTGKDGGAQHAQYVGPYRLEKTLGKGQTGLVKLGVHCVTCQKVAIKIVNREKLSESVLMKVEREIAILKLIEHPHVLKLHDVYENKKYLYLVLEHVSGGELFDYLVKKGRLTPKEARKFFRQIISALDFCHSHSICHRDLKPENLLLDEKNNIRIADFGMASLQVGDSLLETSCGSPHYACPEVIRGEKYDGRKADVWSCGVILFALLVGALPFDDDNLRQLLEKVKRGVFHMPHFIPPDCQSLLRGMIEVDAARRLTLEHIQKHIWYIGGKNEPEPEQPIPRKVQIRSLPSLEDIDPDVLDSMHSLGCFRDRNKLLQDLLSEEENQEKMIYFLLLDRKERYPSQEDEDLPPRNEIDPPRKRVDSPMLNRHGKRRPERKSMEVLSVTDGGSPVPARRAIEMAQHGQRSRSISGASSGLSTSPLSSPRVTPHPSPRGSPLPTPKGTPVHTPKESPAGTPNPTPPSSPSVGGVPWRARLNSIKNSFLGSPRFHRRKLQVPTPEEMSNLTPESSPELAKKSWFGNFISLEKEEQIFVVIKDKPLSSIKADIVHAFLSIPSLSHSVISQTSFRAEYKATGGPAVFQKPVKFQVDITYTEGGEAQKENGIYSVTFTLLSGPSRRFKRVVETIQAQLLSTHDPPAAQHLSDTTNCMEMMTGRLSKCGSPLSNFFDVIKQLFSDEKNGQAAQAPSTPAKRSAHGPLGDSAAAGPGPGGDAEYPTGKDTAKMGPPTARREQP

[8] = molecular target: Non-receptor tyrosine-protein kinase TYK2 (Homo sapiens, UniProt P29597); assay: Selectivity interaction (ActivX KiNativ screen (kinase selectivity in THP-1 cell lysates)) EUB0000639a TYK2; type: subcellular; details: lysate, at 1 µM
[9] = molecular target: Tudor domain-containing protein 3 (Homo sapiens) (UniProt Q9H7E2); assay: Selectivity interaction (PWWP, WD40, and Tudor domain panel (DSLS measurements, literature)) EUB0000270b TDRD3
Aurora kinase B = Aurora kinase B (Homo sapiens, UniProt Q96GD4); assay: Selectivity interaction (Kinase panel (Enzyme activity assay)) EUB0000612a AURKB
[10] = molecular target: Tyrosine-protein kinase JAK1 (Homo sapiens, UniProt P23458); assay: Selectivity interaction (KinomeScan (DiscoverX)) EUB0000092b JAK1; details: at 10 µM
[11] = molecular target: Death-associated protein kinase 1 (Homo sapiens, UniProt P53355); assay: Selectivity interaction (Adapta Assay) EUB0001632a DAPK1; details: at 10 µM
[12] = molecular target: T2, Mitogen-activated protein kinase kinase kinase 5 (Homo sapiens) (UniProt Q99683); assay: Selectivity interaction (LanthaScreen Eu Kinase Binding Assay) EUB0001632a MAP3K5; details: at 10 µM
T2 sequence (whole entry): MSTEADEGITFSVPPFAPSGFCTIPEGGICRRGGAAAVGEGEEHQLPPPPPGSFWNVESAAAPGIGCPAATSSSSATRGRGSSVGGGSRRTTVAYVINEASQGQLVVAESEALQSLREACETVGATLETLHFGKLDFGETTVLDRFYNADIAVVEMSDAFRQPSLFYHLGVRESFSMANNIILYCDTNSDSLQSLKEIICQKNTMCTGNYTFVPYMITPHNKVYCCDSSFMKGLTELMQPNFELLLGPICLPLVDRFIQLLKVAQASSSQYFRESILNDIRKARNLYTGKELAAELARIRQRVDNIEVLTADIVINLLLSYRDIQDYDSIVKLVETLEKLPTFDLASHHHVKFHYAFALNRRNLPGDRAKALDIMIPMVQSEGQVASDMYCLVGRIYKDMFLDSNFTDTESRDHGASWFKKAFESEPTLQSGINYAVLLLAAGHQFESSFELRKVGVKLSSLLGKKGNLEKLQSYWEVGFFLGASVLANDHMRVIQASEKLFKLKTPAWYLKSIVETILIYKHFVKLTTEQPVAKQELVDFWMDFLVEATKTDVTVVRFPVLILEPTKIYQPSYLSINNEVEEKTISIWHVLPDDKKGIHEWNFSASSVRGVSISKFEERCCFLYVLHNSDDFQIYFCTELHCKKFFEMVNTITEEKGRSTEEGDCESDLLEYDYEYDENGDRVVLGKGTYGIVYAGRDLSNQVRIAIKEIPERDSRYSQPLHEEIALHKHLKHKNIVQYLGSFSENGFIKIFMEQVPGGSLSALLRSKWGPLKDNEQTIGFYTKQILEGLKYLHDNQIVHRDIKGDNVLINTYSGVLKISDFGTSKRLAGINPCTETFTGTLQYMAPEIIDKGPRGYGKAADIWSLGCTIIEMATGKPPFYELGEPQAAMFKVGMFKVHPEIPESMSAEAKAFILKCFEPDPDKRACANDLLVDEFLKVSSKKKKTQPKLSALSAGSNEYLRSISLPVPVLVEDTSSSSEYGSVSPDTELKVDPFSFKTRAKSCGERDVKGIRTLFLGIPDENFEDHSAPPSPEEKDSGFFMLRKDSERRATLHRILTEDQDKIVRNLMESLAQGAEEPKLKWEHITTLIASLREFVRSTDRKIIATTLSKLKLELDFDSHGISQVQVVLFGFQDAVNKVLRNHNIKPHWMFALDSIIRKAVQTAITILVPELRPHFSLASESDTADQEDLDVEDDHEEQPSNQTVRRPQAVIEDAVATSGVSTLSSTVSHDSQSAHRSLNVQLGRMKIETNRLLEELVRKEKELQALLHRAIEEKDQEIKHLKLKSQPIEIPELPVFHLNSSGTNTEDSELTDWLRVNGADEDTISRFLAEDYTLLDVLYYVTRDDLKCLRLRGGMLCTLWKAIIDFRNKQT

Chain of Histone-lysine N-methyltransferase KMT5C (Homo sapiens) (Q86Y97 whole entry, looked up, the tested form may be a part): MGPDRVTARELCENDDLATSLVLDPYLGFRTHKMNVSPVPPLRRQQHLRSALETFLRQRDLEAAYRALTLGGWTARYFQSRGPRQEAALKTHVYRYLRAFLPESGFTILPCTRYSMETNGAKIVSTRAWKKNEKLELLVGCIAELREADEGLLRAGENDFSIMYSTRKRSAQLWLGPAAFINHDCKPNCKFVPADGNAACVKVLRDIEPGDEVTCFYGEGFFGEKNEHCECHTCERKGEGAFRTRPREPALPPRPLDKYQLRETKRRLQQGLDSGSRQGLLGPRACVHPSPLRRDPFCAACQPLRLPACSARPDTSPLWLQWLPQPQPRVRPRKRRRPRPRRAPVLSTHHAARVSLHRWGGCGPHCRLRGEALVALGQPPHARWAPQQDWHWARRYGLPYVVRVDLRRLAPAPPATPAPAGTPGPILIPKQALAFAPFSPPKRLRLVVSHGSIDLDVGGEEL
Chain of Serine/threonine-protein kinase 38-like (Homo sapiens) (Q9Y2H1 2-464 limits assumed): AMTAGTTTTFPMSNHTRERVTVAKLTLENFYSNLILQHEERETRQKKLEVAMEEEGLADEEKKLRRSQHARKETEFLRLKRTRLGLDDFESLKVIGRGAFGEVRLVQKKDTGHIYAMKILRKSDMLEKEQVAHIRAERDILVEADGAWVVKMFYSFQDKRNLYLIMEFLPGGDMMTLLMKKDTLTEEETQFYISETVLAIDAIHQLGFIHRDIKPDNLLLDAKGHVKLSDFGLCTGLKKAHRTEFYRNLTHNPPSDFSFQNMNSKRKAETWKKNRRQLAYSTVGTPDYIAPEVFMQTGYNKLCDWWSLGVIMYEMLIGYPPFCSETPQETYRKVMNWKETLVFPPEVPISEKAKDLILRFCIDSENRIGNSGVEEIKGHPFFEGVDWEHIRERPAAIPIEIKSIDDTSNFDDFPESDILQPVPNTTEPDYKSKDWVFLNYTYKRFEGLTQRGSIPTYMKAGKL
Chain of Aurora kinase B (Q96GD4 whole entry): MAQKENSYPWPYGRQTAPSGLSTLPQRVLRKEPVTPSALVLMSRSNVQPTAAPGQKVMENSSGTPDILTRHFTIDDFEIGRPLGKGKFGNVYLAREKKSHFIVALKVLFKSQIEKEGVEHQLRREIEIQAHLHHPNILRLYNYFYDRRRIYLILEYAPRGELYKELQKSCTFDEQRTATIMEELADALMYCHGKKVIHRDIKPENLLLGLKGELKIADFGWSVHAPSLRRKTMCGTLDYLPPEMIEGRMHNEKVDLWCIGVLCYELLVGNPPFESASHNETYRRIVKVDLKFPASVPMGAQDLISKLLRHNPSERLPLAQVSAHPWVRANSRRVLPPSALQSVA
Chain of Tyrosine-protein kinase JAK1 (P23458 whole entry): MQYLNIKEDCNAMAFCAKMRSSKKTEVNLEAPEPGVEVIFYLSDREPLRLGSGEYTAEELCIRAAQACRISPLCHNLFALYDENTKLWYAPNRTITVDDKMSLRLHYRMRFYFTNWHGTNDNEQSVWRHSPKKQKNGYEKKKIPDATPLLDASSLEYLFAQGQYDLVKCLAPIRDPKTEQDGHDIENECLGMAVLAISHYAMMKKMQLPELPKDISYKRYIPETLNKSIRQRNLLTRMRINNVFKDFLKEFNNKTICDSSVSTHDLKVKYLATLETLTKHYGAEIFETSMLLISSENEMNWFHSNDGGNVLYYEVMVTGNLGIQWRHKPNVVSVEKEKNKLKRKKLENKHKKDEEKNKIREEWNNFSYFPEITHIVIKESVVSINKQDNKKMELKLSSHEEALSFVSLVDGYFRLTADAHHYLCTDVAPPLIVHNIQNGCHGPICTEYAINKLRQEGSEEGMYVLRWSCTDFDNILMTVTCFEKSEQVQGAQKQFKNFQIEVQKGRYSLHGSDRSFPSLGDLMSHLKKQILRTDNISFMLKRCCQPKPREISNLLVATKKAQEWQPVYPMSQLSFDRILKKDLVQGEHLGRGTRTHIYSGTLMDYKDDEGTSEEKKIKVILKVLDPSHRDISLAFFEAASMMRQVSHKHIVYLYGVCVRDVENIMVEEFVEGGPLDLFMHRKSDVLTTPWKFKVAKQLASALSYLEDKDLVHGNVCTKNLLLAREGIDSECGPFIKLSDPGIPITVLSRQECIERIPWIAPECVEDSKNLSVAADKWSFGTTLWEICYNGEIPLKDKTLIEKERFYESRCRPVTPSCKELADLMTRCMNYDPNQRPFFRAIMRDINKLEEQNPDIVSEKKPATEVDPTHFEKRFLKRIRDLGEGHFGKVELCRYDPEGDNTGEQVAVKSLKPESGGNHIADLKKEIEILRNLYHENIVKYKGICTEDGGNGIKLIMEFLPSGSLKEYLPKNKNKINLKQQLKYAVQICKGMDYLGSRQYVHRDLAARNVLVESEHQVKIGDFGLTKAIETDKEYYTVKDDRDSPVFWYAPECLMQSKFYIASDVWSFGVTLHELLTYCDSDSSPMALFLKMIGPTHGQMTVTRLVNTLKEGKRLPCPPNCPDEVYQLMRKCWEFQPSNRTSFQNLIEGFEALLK
Chain of Epithelial discoidin domain-containing receptor 1 (Homo sapiens) (Q08345 whole entry, the tested form may be a part, canonical isoform): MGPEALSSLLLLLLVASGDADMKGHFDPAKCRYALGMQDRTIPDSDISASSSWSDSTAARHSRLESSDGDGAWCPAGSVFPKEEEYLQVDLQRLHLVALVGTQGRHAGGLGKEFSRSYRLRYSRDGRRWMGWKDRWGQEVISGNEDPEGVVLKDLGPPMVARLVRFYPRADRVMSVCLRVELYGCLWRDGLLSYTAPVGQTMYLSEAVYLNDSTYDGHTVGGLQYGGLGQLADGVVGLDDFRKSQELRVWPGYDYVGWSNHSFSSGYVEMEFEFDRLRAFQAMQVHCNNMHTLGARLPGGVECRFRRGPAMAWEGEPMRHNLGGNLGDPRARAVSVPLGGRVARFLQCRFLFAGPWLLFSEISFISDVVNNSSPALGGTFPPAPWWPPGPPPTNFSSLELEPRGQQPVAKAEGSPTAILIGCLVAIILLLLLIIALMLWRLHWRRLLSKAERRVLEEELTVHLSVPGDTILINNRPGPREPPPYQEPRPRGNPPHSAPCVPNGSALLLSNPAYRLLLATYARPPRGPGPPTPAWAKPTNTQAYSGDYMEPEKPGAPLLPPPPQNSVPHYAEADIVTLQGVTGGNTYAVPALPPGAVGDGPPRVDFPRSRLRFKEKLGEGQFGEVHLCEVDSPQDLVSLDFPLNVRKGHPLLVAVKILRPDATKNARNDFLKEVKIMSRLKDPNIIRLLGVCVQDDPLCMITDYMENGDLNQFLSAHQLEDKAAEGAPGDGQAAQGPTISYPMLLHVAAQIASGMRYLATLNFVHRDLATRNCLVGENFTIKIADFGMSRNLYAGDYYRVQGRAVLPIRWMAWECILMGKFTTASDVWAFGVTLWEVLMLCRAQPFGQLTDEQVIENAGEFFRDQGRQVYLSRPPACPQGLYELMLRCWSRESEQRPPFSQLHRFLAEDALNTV
Chain of Mitogen-activated protein kinase 14 (Q16539 whole entry): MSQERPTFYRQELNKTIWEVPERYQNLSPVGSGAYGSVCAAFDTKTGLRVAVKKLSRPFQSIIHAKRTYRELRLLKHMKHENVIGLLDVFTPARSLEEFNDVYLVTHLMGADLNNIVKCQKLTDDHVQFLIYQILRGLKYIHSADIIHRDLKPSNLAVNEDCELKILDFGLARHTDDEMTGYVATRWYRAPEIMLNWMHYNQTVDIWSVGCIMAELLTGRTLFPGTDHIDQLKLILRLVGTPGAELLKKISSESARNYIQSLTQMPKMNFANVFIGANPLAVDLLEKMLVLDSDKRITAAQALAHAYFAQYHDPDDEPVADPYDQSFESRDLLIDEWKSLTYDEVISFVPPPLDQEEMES
Chain of Tudor domain-containing protein 3 (Homo sapiens) (Q9H7E2 whole entry, the tested form may be a part): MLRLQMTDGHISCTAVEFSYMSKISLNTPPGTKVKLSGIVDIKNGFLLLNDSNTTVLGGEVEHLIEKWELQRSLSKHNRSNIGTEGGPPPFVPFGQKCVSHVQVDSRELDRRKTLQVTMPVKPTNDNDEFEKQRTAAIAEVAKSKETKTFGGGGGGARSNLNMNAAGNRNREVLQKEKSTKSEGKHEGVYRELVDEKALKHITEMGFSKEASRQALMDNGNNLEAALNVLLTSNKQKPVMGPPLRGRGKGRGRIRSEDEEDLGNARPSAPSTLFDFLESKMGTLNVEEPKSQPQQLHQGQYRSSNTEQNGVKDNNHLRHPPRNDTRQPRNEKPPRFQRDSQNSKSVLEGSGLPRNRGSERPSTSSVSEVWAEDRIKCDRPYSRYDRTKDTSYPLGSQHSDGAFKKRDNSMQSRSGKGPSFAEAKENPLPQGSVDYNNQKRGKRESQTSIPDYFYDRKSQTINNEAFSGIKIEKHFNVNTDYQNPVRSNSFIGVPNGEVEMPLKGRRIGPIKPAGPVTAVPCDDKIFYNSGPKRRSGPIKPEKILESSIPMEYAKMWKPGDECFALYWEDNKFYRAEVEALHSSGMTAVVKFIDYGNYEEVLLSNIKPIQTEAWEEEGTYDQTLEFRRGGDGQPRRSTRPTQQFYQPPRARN
Chain of RAC-alpha serine/threonine-protein kinase (P31749 whole entry): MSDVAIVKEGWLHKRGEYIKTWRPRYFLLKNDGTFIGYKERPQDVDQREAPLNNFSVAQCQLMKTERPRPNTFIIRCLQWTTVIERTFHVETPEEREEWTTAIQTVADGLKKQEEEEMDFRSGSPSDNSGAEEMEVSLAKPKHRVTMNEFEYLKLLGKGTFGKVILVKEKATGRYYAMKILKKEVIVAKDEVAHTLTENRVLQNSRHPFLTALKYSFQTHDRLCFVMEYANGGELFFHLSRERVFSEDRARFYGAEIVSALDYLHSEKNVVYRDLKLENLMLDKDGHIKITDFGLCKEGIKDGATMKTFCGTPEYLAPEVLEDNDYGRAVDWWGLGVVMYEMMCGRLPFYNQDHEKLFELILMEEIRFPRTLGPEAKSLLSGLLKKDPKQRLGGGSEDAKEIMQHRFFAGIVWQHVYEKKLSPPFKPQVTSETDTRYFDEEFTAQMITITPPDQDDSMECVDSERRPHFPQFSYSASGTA

Compound: Cc1cc(C)cc([C@@H]2c3cc(C)ccc3NC(=O)CN2C(=O)c2ccc(Br)s2)c1
% of activity ([1]; at 1 µM): 102% | % of activity ([1]; at 10 µM): 102%

Compound: Nc1cnc(N2CCc3cc(S(=O)(=O)Nc4c(F)cc(Cl)cc4F)cc(N4CCCC4=O)c32)nc1 [TP-020n]
% of control [2]: 100%

Compound: O[C@H]1CC[C@H](Nc2ncc3nc(Nc4c(F)cc(F)cc4F)n([C@H]4CCOC4)c3n2)CC1
% of control [3]: 100% | % of control [4]: 3.4%

Compound: C=CC(=O)Nc1cc(-n2c(=O)ccc3cnc4ccc(-c5ccc(NS(C)(=O)=O)cc5)cc4c32)ccc1C
% of control ([5]; at 1 µM): 100% | % of control ([5]; at 10 µM): 95%

Compound: COCC(=O)NC/C=C/c1ccc2ncnc(Nc3ccc(Oc4ccc(C)nc4)c(C)c3)c2c1 [CP-724714]
% of control [6]: 100%

Compound: Cc1cc([C@@H](C)Nc2ccccc2C(=O)O)c2nc(N3CCOCC3)cc(=O)n2c1 [AZD-6482]
% of control [7]: 100%

% of inhibition [8]: -8.7%
Compound: CC[C@@H]1[C@H](F)C(=O)N[C@@H]1COc1nccc2cc(C(N)=O)c(OC)cc12 [ZIMLOVISERTIB]

dTagg [9]: 0.8 K
Compound: Cc1cc(CN)cc(C)c1-c1ncn(C)c1-c1cncn1C

IC50 (Aurora kinase B): > 10 µM
Compound: CCc1cccc(CC)c1NC(=O)c1nn(C)c2c1CCc1cnc(Nc3ccc(C(=O)NC4CCN(C)CC4)cc3OC(F)(F)F)nc1-2

Compound: CCC(=O)N1CCN(c2ccc(-n3c(=O)ccc4cnc5ccc(-c6cnc7ccccc7c6)cc5c43)cc2C(F)(F)F)CC1
% of control [10]: 76%

% of inhibition [12]: -14.2%
Compound: Cn1cc(-n2cnc3c(NCc4nc5cc(Cl)c(Cl)cc5[nH]4)nc(N4CCOCC4)nc32)cn1
% of inhibition [11]: 34%
